# In patent US20260294905A1, “USE OF PLURALITY OF COMPOUNDS IN PREPARATION OF DRUG FOR TREATING MYELOPROLIFERATIVE NEOPLASMS” (THE SECOND XIANGYA HOSPITAL OF CENTRAL SOUTH UNIVERSITY, priority 2022, published 2026):
# Several values for one entry are separate records, joined by “and”; a condition that tells them apart may be missing. Identical values can stand only once. Entries after “also recorded” stand apart in the source; their conditions may differ.
# Experiments:
# [1] = system: HEL cells (human erythroleukemia cell line); test: CellTiter-Lumi luminescence proliferation of naive HEL cells, 48 h; format: cell-based; conditions: for inhibition of proliferation of HEL cells (in words): 0.1-10 μM; for activity at 0.1 µM / activity at 0.3 µM / activity at 1 µM / activity at 3 µM / activity at 10 µM: Homo sapiens, 48 h, vs DMSO control, read-out: average proliferation rate of HEL cells
# Description: (§1) HELs (Human erythroleukemia cell lines) and Ruxolitinib-resistant HEL cells were both cultured in a RPMI medium (Gibco) containing 20% heat-inactivated fetal bovine serum (Gibco) and 1% penicillin/streptomycin.
# (§2) Ruxolitinib and other compounds were all purchased from Selleck, dissolved in DMSO with a stock solution concentration of 10 mM, and cryopreserved at −80° C. The working solution was diluted to a specified multiple using a RPMI medium and then used for treating cells. Ruxolitinib was specifically ruxolitinib phosphate.
# (§3) To detect the antiproliferative effect of the inhibitor, the aforementioned cell lines were cultured at 3,000 cells/100 μL of the system per well, added with increasing concentrations of Ruxolitinib (concentration gradients of HEL cells: 0, 0.1, 1, 2.5, 5 μM; or 0, 0.1, 0.3, 1, 3, 10 μM), and added with DMSO to make up to the same amount. 4 parallel replicate groups were set up, and 3 blank wells (wells containing culture media without cells) were set up.
# (§4) A calculation formula of the cell proliferation rate was: cell proliferation rate=(Luminescence value of the group added with the drug-average Luminescence value of the blank wells)/(Luminescence value of the DMSO control group-average Luminescence value of the blank wells)×100%.
# In order to detect the effects of the compounds on the proliferation abilities of drug-resistant myeloproliferative neoplasm cells, the method was to treat the HEL naïve cell lines with increasing concentrations of Ruxolitinib and the compounds respectively, and to detect the proliferation of the cells by a CellTiter-Lumi™ luminescence method.
# [2] = system: HEL cells (human erythroleukemia cell line); test: Annexin V-PI staining and flow cytometry, apoptosis of HEL cells, 24 h; format: cell-based; conditions: for promotion of apoptosis of HEL cells (in words): 0.1-10 μM
# Description: • 1. the cell lines and inhibitors were the same as those in Example 1. • 2. detection of cell apoptosis
# (§5) To detect the apoptosis-promoting effect of the inhibitors, HEL naïve cell strains were treated with Ruxolitinib and the compounds for 24 hours respectively (with concentrations of: 0, 0.1, 0.5, 1 μM or 0, 0.1, 0.3, 1, 3, 10 μM), and added with DMSO to make up to the same amount. 3 parallel replicate groups were set up, and cell apoptosis was detected by Annexin V and PI staining followed by flow cytometry.
# (§6) A calculation formula of cell apoptosis rate was: cell apoptosis rate=the ratio of early apoptotic cells (Annexin V^+/PI^−)+the ratio of late apoptotic cells and necrotic cells (Annexin V^+/PI^+).
# neuroblastoma cells = conditions: cited from earlier work
# [3] = system: non-small cell lung cancer; conditions: non-small cell lung cancer patients, RP2D 275 mg per day; cited from earlier work
# [4] = system: HEL^RE cells (Ruxolitinib-resistant HEL); test: Annexin V-PI staining and flow cytometry, apoptosis of HEL^RE cells; format: cell-based, human; conditions: for average apoptosis rate of HEL-RE cells: 24 h; for promotion of apoptosis of HEL^RE cells (in words): 0.1-10 μM
# Description: as §5, §6
# In order to detect the effects of compounds on the abilities of drug-resistant myeloproliferative neoplasm cells, the method was to treat HEL^RE with increasing concentrations of Ruxolitinib and the compounds, and to detect cell apoptosis by Annexin V and PI staining followed by flow cytometry.
# [5] = system: neuroblastoma mouse model; conditions: cited from earlier work
# [6] = system: HEL^RE cells (Ruxolitinib-resistant HEL); test: CellTiter-Lumi luminescence proliferation of Ruxolitinib-resistant HEL^RE cells, 48 h; format: cell-based, human; conditions: HEL^RE cells; for inhibition of proliferation of HEL^RE cells (in words): 0.1-10 μM; for activity at 0.1 µM / activity at 0.3 µM / activity at 1 µM / activity at 3 µM / activity at 10 µM: Homo sapiens, 48 h, vs DMSO control, read-out: average proliferation rate of HEL^RE cells
# Text: as §1
# A Ruxolitinib-resistant HEL model, i.e., a HEL^RE model, was constructed by starting the addition of Ruxolitinib at a concentration lower than the IC50 of naïve cells and slowly incrementing the concentration to a high concentration, and preventing the cells from being killed. Our starting concentration was 0.1 μM. The drug was added upon occurrence of cell proliferation. The drug addition gradient was an increment at a multiple of 1.25, and the final concentration was 2.0 μM. Stable drug-resistant cells were obtained after 4-6 weeks.
# as §2, §3, §4
# A method for evaluating whether the model was successfully constructed was to compare the IC50s of resistant cells and naïve cells.
# In order to detect the effects of five compounds on the proliferation abilities of drug-resistant myeloproliferative neoplasm cells, the method was to treat HEL^RE with increasing concentrations of Ruxolitinib and the five compounds respectively, and to detect the proliferation of the cells by a CellTiter-Lumi™ luminescence method.
# [7] = system: preclinical model including melanoma; conditions: cited from earlier work
# [8] = orally once a week, RP2D 420 mg/m^2 (not exceeding 600 mg); cited from earlier work
# [9] = system: progressive or metastatic solid tumors; conditions: RP2D 2.7 mg, cited from earlier work
structure (smiles),measurement,setting,value
COc1cc2ncnc(Oc3cccc(NC(=O)Nc4cc(C(C)(C)C(F)(F)F)on4)c3)c2cc1OC [Agerafenib],inhibition of proliferation of HEL cells (in words),[1],"can successfully inhibit the proliferation of the HEL cells; also recorded: could inhibit the proliferation of the HEL cells, and this effect was increased with the increase of the drug concentration"
same,activity at 0.1 µM,[1],90.1 ± 3.01%
same,activity at 0.3 µM,[1],93.8 ± 12.4%
same,activity at 1 µM,[1],83.2 ± 4.45%
same,activity at 3 µM,[1],70.3 ± 3.47%
same,activity at 10 µM,[1],40.1 ± 8.26%
same,average apoptosis rate of HEL cells,[2]; 0.1 μM,4.41±0.630% and 4.41%
same,average apoptosis rate of HEL cells,[2]; 0.3 μM,4.98±1.09% and 4.98%
same,average apoptosis rate of HEL cells,[2]; 1 μM,3.42±0.140% and 3.42%
same,average apoptosis rate of HEL cells,[2]; 3 μM,5.27%
same,average apoptosis rate of HEL cells,[2]; 10 μM,5.43±0.720% and 5.43%
same,promotion of apoptosis of HEL cells (in words),[2],could not promote apoptosis of the HEL cells
same,proliferation and colony formation of neuroblastoma cells,neuroblastoma cells; in vitro,able to inhibit the proliferation and colony formation of neuroblastoma cells in vitro
same,combination with traditional chemotherapy drugs,neuroblastoma cells; with traditional chemotherapy drugs,had a synergistic effect with traditional chemotherapy drugs
same,anti-tumor activity,[3],good anti-tumor activity
same,average apoptosis rate of HEL-RE cells,[4]; 0.1 μM,7.05±0.920% and 7.05%
same,average apoptosis rate of HEL-RE cells,[4]; 0.3 μM,5.33±0.430% and 5.33%
same,average apoptosis rate of HEL-RE cells,[4]; 1 μM,5.11±0.210% and 5.11%
same,average apoptosis rate of HEL-RE cells,[4]; 3 μM,7.37±0.220% and 7.37%
same,average apoptosis rate of HEL-RE cells,[4]; 10 μM,8.22±0.390% and 8.22%
same,promotion of apoptosis of HEL^RE cells (in words),[4],could not promote apoptosis of the HEL^RE cells
same,tumor growth and survival,[5],able to inhibit tumor growth of and prolong the survival of mice significantly
same,inhibition of proliferation of HEL^RE cells (in words),[6],"could inhibit the proliferation of the HEL^RE cells, and this effect was increased with the increase of the drug concentration"
same,activity at 0.1 µM,[6],4.26 ± 0.46%
same,activity at 0.3 µM,[6],2.77 ± 0.43%
same,activity at 1 µM,[6],2.75 ± 0.94%
same,activity at 3 µM,[6],2.21 ± 0.04%
same,activity at 10 µM,[6],1.86 ± 0.23%
C[C@@H](NC(=O)c1ncnc(N)c1Cl)c1ncc(C(=O)Nc2cc(C(F)(F)F)c(Cl)cn2)s1 [MLN2480],anti-tumor activity,[7],good anti-tumor activity
same,inhibition of proliferation of HEL cells (in words),[1],could not inhibit the proliferation of the HEL cells
same,activity at 0.1 µM,[1],98.5 ± 2.62%
same,activity at 0.3 µM,[1],97.9 ± 3.55%
same,activity at 1 µM,[1],97.3 ± 0.78%
same,activity at 3 µM,[1],98.3 ± 0.65%
same,activity at 10 µM,[1],97.6 ± 3.47%
same,safety,[8],good safety and low toxic and side effects
same,average apoptosis rate of HEL cells,[2]; 0.1 μM,4.61±2.768% and 4.61%
same,average apoptosis rate of HEL cells,[2]; 0.3 μM,3.85±0.101% and 3.85%
same,average apoptosis rate of HEL cells,[2]; 1 μM,5.53±1.22% and 5.53%
same,average apoptosis rate of HEL cells,[2]; 3 μM,10.04±2.663% and 10.04%
same,average apoptosis rate of HEL cells,[2]; 10 μM,8.8±1.063% and 8.8%
same,promotion of apoptosis of HEL cells (in words),[2],could not promote the apoptosis of myeloproliferative neoplasm cells
same,average apoptosis rate of HEL-RE cells,[4]; 0.1 μM,6.54±0.560% and 6.54%
same,average apoptosis rate of HEL-RE cells,[4]; 0.3 μM,7.80±0.900% and 7.80%
same,average apoptosis rate of HEL-RE cells,[4]; 1 μM,10.9±0.390% and 10.9%
same,average apoptosis rate of HEL-RE cells,[4]; 3 μM,15.5±0.580% and 15.5%
same,average apoptosis rate of HEL-RE cells,[4]; 10 μM,13.8±0.775% and 13.8%
same,promotion of apoptosis of HEL^RE cells (in words),[4],"could promote apoptosis of Ruxolitinib-resistant myeloproliferative neoplasm cells, and this effect was increased with the increase of the drug concentration; also recorded: can promote the apoptosis of the HEL^RE cells"
same,inhibition of proliferation of HEL^RE cells (in words),[6],"could inhibit the proliferation of drug-resistant myeloproliferative neoplasm cells, and this effect was increased with the increase of the drug concentration"
same,overall effectiveness among the compounds,[6]; proliferation and apoptosis taken together,more effective
same,activity at 0.1 µM,[6],103 ± 8.58%
same,activity at 0.3 µM,[6],75.1 ± 3.54%
same,activity at 1 µM,[6],46.5 ± 9.45%
same,activity at 3 µM,[6],18.9 ± 4.22%
same,activity at 10 µM,[6],10.3 ± 0.49%
CNS(=O)(=O)Nc1nccc(Cc2c(C)c3ccc(Oc4ncccn4)cc3oc2=O)c1F [RO5126766],inhibition of proliferation of HEL cells (in words),[1],"can successfully inhibit the proliferation of the HEL cells; also recorded: could inhibit the proliferation of the HEL cells, and this effect increased with increase in the drug concentration"
same,activity at 0.1 µM,[1],85.8 ± 2.75%
same,activity at 0.3 µM,[1],89 ± 13.5%
same,activity at 1 µM,[1],83.4 ± 3.31%
same,activity at 3 µM,[1],61.6 ± 3.79%
same,activity at 10 µM,[1],47.1 ± 5.47%
same,average apoptosis rate of HEL cells,[2]; 0.1 μM,6.00±0.290% and 6.00%
same,average apoptosis rate of HEL cells,[2]; 0.3 μM,6.96±1.16% and 6.96%
same,average apoptosis rate of HEL cells,[2]; 1 μM,6.11±0.640% and 6.11%
same,average apoptosis rate of HEL cells,[2]; 3 μM,8.32±2.69% and 8.32%
same,average apoptosis rate of HEL cells,[2]; 10 μM,6.73±1.20% and 6.73%
same,promotion of apoptosis of HEL cells (in words),[2],could not promote apoptosis of the HEL cells
same,average apoptosis rate of HEL-RE cells,[4]; 0.1 μM,6.25±0.920% and 6.25%
same,average apoptosis rate of HEL-RE cells,[4]; 0.3 μM,5.88±1.25% and 5.88%
same,average apoptosis rate of HEL-RE cells,[4]; 1 μM,7.32±1.74% and 7.32%
same,average apoptosis rate of HEL-RE cells,[4]; 3 μM,4.71±0.350% and 4.71%
same,average apoptosis rate of HEL-RE cells,[4]; 10 μM,5.42±0.830% and 5.42%
same,promotion of apoptosis of HEL^RE cells (in words),[4],could not promote apoptosis of the HEL^RE cells
same,anti-tumor activity,[9]; 4 consecutive days a week for 4 weeks,good anti-tumor activity
same,side effects,[9],tolerable side effects
same,inhibition of proliferation of HEL^RE cells (in words),[6],"could inhibit the proliferation of the HEL^RE cells, and this effect increased with increase in the drug concentration"
same,activity at 0.1 µM,[6],48.1 ± 3.37%
same,activity at 0.3 µM,[6],41.4 ± 3.16%
same,activity at 1 µM,[6],35.2 ± 2.89%
same,activity at 3 µM,[6],31.5 ± 1.9%
same,activity at 10 µM,[6],27.7 ± 2.34%
